Source: publication PMC11839852, “Preclinical comparison of (radio)lanthanides using mass spectrometry and nuclear imaging techniques: biodistribution of lanthanide-based tumor-targeting agents and lanthanides in ionic form” (European Journal of Nuclear Medicine and Molecular Imaging, 2024)
Marks after values point to notes of the source that are not given here.

Experiments:
AR42J tumor cells = assay: In vitro cell uptake of lanthanide chloride salts; type: cell-based, rat
Experimental: (§1) A mixture of equal molar amounts of the lanthanide chloride salts (100 nM stock solutions of ^natLuCl3, ^natTbCl3, ^natGdCl3, and ^natEuCl3, diluted in saline with an adjusted pH value to 3.5‒4.0) was prepared to obtain a final concentration of 10 pmol/mL (2.5 pmol/mL per lanthanide salt) and tested with AR42J, PC-3 PIP and KB tumor cells according to the same protocol as described for the Ln-labeled biomolecules (Supplementary Material). Analogous in vitro cell uptake studies were also performed with lanthanide metal complexes of diethylenetriaminepentaacetic acid (DTPA, Sigma Aldrich Chemie, Steinheim, Germany) to obtain a final concentration of 10 pmol/mL (2.5 pmol/mL per lanthanide complex) (Supplementary Material).
(§2) Cell uptake studies were performed in triplicate in 3‒6 independent experiments and the results presented as the average ± standard deviation (SD). Data were normalized to the values measured for the ^175Lu-labeled tumor targeting agent or [^175Lu]LuCl3, which were set as 100% and zero was defined as 0%. Statistical significance of the normalized data was assessed for the comparison of the values obtained for terbium, gadolinium and europium analogues with those obtained for the lutetium counterparts by applying one-way ANOVA with the Dunnett’s post-test using GraphPad Prism software (version 8). A p-value of < 0.05 was considered statistically significant.
(§3) Methods: The same experimental setting as described for Ln-labeled biomolecules was applied to perform uptake and internalization studies with the lanthanide salts (LnCl3; Ln = ^natLu, ^natTb, ^natGd and ^natEu). The applied solution was a mixture of the four lanthanide salts yielding a final concentration of 0.4 µM. Of these mixtures, 25 μL were added to the corresponding well with tumor cells. The cells were incubated for 1 h and 4 h, respectively, at 37 °C and 5% CO2. After incubation, the tumor cells were treated as described for the Ln-labeled biomolecules and processed for the measurement with ICP-MS.

[1] = system: non-tumor-bearing immunocompetent FVB mice; assay: Biodistribution of lanthanide chloride salts LnCl3 (multiplexed ICP-MS); type: in vivo; settings: for Tissue uptake: Blood / Tissue uptake: Bone / Tissue uptake: Brain / Tissue uptake: Heart / Tissue uptake: Intestines / Tissue uptake: Kidneys / Tissue uptake: Liver / Tissue uptake: Lung / Tissue uptake: Muscle / Tissue uptake: Pancreas / Tissue uptake: Salivary glands / Tissue uptake: Spleen / Tissue uptake: Stomach: non-tumor-bearing mice
PC-3 PIP tumor cells = assay: In vitro cell uptake of lanthanide chloride salts; type: cell-based, human; settings: both incubation times
Experimental: as §1, §2, §3

[2] = 24 h p.i., estimated ratios (organ <0.5% ID/g)
[3] = 96 h p.i., estimated ratios (organ <0.5% ID/g)

## [Cl-].[Cl-].[Cl-].[Eu+3] [[^153Eu]EuCl3]
AR42J tumor cells
  Lanthanide uptake compared with [175Lu]LuCl3: lower uptake
[1]; 1 h p.i.
  Organ ratios: Blood-to-bone: 0.40 ± 0.05
  Organ ratios: Blood-to-liver: 0.14 ± 0.02
  Organ ratios: Liver-to-bone: 3.0 ± 0.4
  Tissue uptake: Blood: 5.5 ± 0.6 % ID/g
  Tissue uptake: Bone: 14 ± 2 % ID/g
  Tissue uptake: Brain: 1.2 ± 0.9 % ID/g
  Tissue uptake: Heart: 5.3 ± 2.1 % ID/g
  Tissue uptake: Intestines: 2.6 ± 0.9 % ID/g
  Tissue uptake: Kidneys: 8.1 ± 2.1 % ID/g
  Tissue uptake: Liver: 41 ± 5 % ID/g
  Tissue uptake: Lung: 4.8 ± 1.1 % ID/g
  Tissue uptake: Muscle: 1.7 ± 1.0 % ID/g
  Tissue uptake: Pancreas: 2.2 ± 1.0 % ID/g
  Tissue uptake: Salivary glands: 2.7 ± 1.7 % ID/g
  Tissue uptake: Spleen: 6.9 ± 1.6 % ID/g
  Tissue uptake: Stomach: 6.0 ± 2.3 % ID/g
[1]; 24 h p.i.
  Organ ratios: Liver-to-bone: 2.7 ± 0.8
  Tissue uptake: Blood: <0.5 % ID/g
  Tissue uptake: Bone: 14 ± 3 % ID/g
  Tissue uptake: Brain: <0.5 % ID/g
  Tissue uptake: Heart: 1.0 ± 0.1 % ID/g
  Tissue uptake: Intestines: 0.58 ± 0.06 % ID/g
  Tissue uptake: Kidneys: 3.8 ± 0.9 % ID/g
  Tissue uptake: Lung: 1.1 ± 0.2 % ID/g
  Tissue uptake: Muscle: <0.5 % ID/g
  Tissue uptake: Pancreas: <0.5 % ID/g
  Tissue uptake: Salivary glands: 0.53 ± 0.17 % ID/g
  Tissue uptake: Spleen: 5.6 ± 1.1 % ID/g
  Tissue uptake: Stomach: 1.9 ± 0.5 % ID/g
[1]; [2]
  Organ ratios: Blood-to-bone: <0.04^*
  Organ ratios: Blood-to-liver: <0.01^*
[1]; 24 h p.i., listed as europium
  Tissue uptake: Liver: 37 ± 7 % ID/g
[1]; 24 h p.i., listed as natEu
  Tissue uptake: Liver: ~ 37 % ID/g
[1]; 96 h p.i.
  Organ ratios: Liver-to-bone: 1.3 ± 0.2
  Tissue uptake: Blood: <0.5 % ID/g
  Tissue uptake: Bone: 18 ± 3 % ID/g
  Tissue uptake: Brain: <0.5 % ID/g
  Tissue uptake: Heart: 0.83 ± 0.05 % ID/g
  Tissue uptake: Intestines: 0.53 ± 0.04 % ID/g
  Tissue uptake: Kidneys: 1.9 ± 0.1 % ID/g
  Tissue uptake: Liver: 23 ± 1 % ID/g
  Tissue uptake: Lung: 0.88 ± 0.15 % ID/g
  Tissue uptake: Muscle: <0.5 % ID/g
  Tissue uptake: Pancreas: <0.5 % ID/g
  Tissue uptake: Salivary glands: <0.5 % ID/g
  Tissue uptake: Spleen: 3.5 ± 0.3 % ID/g
  Tissue uptake: Stomach: 2.3 ± 0.3 % ID/g
[1]; [3]
  Organ ratios: Blood-to-bone: <0.03^*
  Organ ratios: Blood-to-liver: <0.02^*

## [Cl][Gd]([Cl])[Cl] [[^157Gd]GdCl3]
AR42J tumor cells; 1 h incubation
  Detected fraction after acid-wash compared with lutetium: significantly lower
PC-3 PIP tumor cells
  Fraction retained after acid-wash compared with lutetium: higher
[1]; 1 h p.i.
  Organ ratios: Blood-to-bone: 0.37 ± 0.01
  Organ ratios: Blood-to-liver: 0.14 ± 0.02
  Organ ratios: Liver-to-bone: 2.6 ± 0.4
  Tissue uptake: Blood: 4.9 ± 0.3 % ID/g
  Tissue uptake: Bone: 13 ± 1 % ID/g
  Tissue uptake: Brain: 1.0 ± 0.6 % ID/g
  Tissue uptake: Heart: 5.0 ± 1.7 % ID/g
  Tissue uptake: Intestines: 2.5 ± 0.8 % ID/g
  Tissue uptake: Kidneys: 8.0 ± 2.0 % ID/g
  Tissue uptake: Liver: 34 ± 4 % ID/g
  Tissue uptake: Lung: 4.8 ± 0.4 % ID/g
  Tissue uptake: Muscle: 1.6 ± 0.6 % ID/g
  Tissue uptake: Pancreas: 2.2 ± 0.4 % ID/g
  Tissue uptake: Salivary glands: 2.8 ± 1.3 % ID/g
  Tissue uptake: Spleen: 6.3 ± 0.9 % ID/g
  Tissue uptake: Stomach: 6.2 ± 1.7 % ID/g
[1]; 24 h p.i.
  Organ ratios: Liver-to-bone: 2.2 ± 0.5
  Tissue uptake: Blood: <0.5 % ID/g
  Tissue uptake: Bone: 14 ± 2 % ID/g
  Tissue uptake: Brain: <0.5 % ID/g
  Tissue uptake: Heart: 1.2 ± 0.1 % ID/g
  Tissue uptake: Intestines: 0.71 ± 0.04 % ID/g
  Tissue uptake: Kidneys: 4.0 ± 0.9 % ID/g
  Tissue uptake: Lung: 1.3 ± 0.1 % ID/g
  Tissue uptake: Muscle: 1.1 ± 0.8 % ID/g
  Tissue uptake: Pancreas: 0.61 ± 0.11 % ID/g
  Tissue uptake: Salivary glands: 0.77 ± 0.16 % ID/g
  Tissue uptake: Spleen: 5.7 ± 1.1 % ID/g
  Tissue uptake: Stomach: 2.6 ± 0.1 % ID/g
[1]; [2]
  Organ ratios: Blood-to-bone: <0.03^*
  Organ ratios: Blood-to-liver: <0.02^*
[1]; 24 h p.i., listed as gadolinium
  Tissue uptake: Liver: 31 ± 6 % ID/g
[1]; 24 h p.i., listed as natGd
  Tissue uptake: Liver: ~ 31 % ID/g
[1]; 96 h p.i.
  Organ ratios: Liver-to-bone: 1.1 ± 0.2
  Tissue uptake: Blood: <0.5 % ID/g
  Tissue uptake: Bone: 17 ± 3 % ID/g
  Tissue uptake: Brain: <0.5 % ID/g
  Tissue uptake: Heart: 1.2 ± 0.1 % ID/g
  Tissue uptake: Intestines: 0.66 ± 0.07 % ID/g
  Tissue uptake: Kidneys: 2.0 ± 0.1 % ID/g
  Tissue uptake: Liver: 18 ± 1 % ID/g
  Tissue uptake: Lung: 1.1 ± 0.2 % ID/g
  Tissue uptake: Muscle: 0.51 ± 0.12 % ID/g
  Tissue uptake: Pancreas: 0.53 ± 0.10 % ID/g
  Tissue uptake: Salivary glands: 0.60 ± 0.08 % ID/g
  Tissue uptake: Spleen: 3.6 ± 0.3 % ID/g
  Tissue uptake: Stomach: 3.1 ± 0.8 % ID/g
[1]; [3]
  Organ ratios: Blood-to-bone: <0.03^*
  Organ ratios: Blood-to-liver: <0.03^*
